# Experimental data published in patent publication US6737383B1, “Herbicidal oxadiazolidines” (priority 1999, dated 2004).
# Legend:
# [1] = tested on: morningglory; experiment: Test B pre/postemergence morningglory; type: in vivo, Ipomoea hederacea; details: for Morningglory plant response rating: scale of 0 to 10 where 0 is no effect and 10 is complete control
# Summary of the method: (§1)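 Test chemicals in a non-phytotoxic solvent mixture with surfactant were sprayed preemergence onto planted seeds and postemergence onto plants 2 to 18 cm tall (1- to 4-leaf stage). After twelve to sixteen days in a greenhouse, injury was visually rated against untreated controls from 0 (no effect) to 10 (complete control).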
# [2] = tested on: pigweed; experiment: Test B pre/postemergence pigweed; type: in vivo, Amaranthus retroflexus; details: for Redroot pigweed plant response rating: scale of 0 to 10 where 0 is no effect and 10 is complete control
# Summary of the method: as §1
# [3] = tested on: velvetleaf; experiment: Test B pre/postemergence velvetleaf; type: in vivo, Abutilon theophrasti; details: for Velvetleaf plant response rating: scale of 0 to 10 where 0 is no effect and 10 is complete control
# Summary of the method: as §1
# [4] = tested on: bamyardgrass; experiment: Test B flood test barnyardgrass; type: in vivo, Echinochloa crus-galli
# Summary of the method: (§2)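 Each value is a visual injury score relative to controls, with 10 meaning complete control and 0 no effect. Evaluation took place twelve to sixteen days after the 2-leaf-stage plants were treated and kept in the greenhouse.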
# [5] = tested on: cocklebur; experiment: Test B pre/postemergence cocklebur; type: in vivo, Xanthium strumarium; details: for Cocklebur plant response rating: scale of 0 to 10 where 0 is no effect and 10 is complete control
# Summary of the method: as §1
# [6] = tested on: purple nutsedge; experiment: Test B pre/postemergence purple nutsedge; type: in vivo, Cyperus rotundus; details: for Nutsedge plant response rating: scale of 0 to 10 where 0 is no effect and 10 is complete control
# Summary of the method: as §1
# [7] = tested on: soybean; experiment: Test B pre/postemergence soybean; type: in vivo, Glycine max; details: for Soybean plant response rating: scale of 0 to 10 where 0 is no effect and 10 is complete control
# Summary of the method: as §1
# [8] = tested on: rape; experiment: Test B pre/postemergence rape; type: in vivo, Brassica napus; details: for Rape plant response rating: scale of 0 to 10 where 0 is no effect and 10 is complete control
# Summary of the method: as §1
# [9] = tested on: smallflower flatsedge; experiment: Test B flood test smallflower flatsedge; type: in vivo, Cyperus difformis
# Summary of the method: as §2
# [10] = tested on: giant foxtail; experiment: Test B pre/postemergence giant foxtail; type: in vivo, Setaria faberii; details: for Giant foxtail plant response rating: scale of 0 to 10 where 0 is no effect and 10 is complete control
# Summary of the method: as §1
# [11] = tested on: crabgrass; experiment: Test B pre/postemergence crabgrass; type: in vivo, Digitaria sanguinalis; details: for Crabgrass plant response rating: scale of 0 to 10 where 0 is no effect and 10 is complete control
# Summary of the method: as §1
# [12] = tested on: surinam grass; experiment: Test B pre/postemergence surinam grass; type: in vivo, Brachiaria decumbens; details: for B. signalgrass plant response rating: scale of 0 to 10 where 0 is no effect and 10 is complete control
# Summary of the method: as §1
# [13] = tested on: corn; experiment: Test B pre/postemergence corn; type: in vivo, Zea mays; details: for Corn plant response rating: scale of 0 to 10 where 0 is no effect and 10 is complete control
# Summary of the method: as §1
# [14] = tested on: sugar beet; experiment: Test B pre/postemergence sugar beet; type: in vivo, Beta vulgaris; details: for Sugarbeets plant response rating: scale of 0 to 10 where 0 is no effect and 10 is complete control
# Summary of the method: as §1
# [15] = tested on: wild oat; experiment: Test B pre/postemergence wild oat; type: in vivo, Avena fatua; details: for Wild oats plant response rating: scale of 0 to 10 where 0 is no effect and 10 is complete control
# Summary of the method: as §1
# [16] = tested on: blackgrass; experiment: Test B pre/postemergence blackgrass; type: in vivo, Alopecurus myosuroides; details: for Blackgrass plant response rating: scale of 0 to 10 where 0 is no effect and 10 is complete control
# Summary of the method: as §1
# [17] = Postemergence, Rate 125 g/ha, scale 0 to 10, 0 is no effect, 10 is complete control
# [18] = Postemergence, Rate 250 g/ha, scale 0 to 10, 0 is no effect, 10 is complete control
# [19] = Preemergence, Rate 62 g/ha, scale 0 to 10 (0 no effect, 10 complete control)
# [20] = Rate 500 g/ha, Postemergence, scale 0 to 10, 0 no effect, 10 complete control
# [21] = Postemergence (flood test), Rate 125 g/ha, scale 0 to 10, 0 is no effect, 10 is complete control
# [22] = Rate 62 g/ha, Postemergence (flood test species), scale of 0 to 10 where 0 is no effect and 10 is complete control
# [23] = Rate 500 g/ha, listed under Postemergence (flood test species), scale 0 to 10, 0 no effect, 10 complete control
# [24] = flood test species, listed under Postemergence, Rate 250 g/ha, scale 0 to 10, 0 is no effect, 10 is complete control
compound,measurement,setting,value
CCN(CC)C(=O)n1oc(=O)n(-c2ccccc2C)c1=O [Compound 364],"Plant response rating, Morningglory",[1]; [17],0
same,"Plant response rating, Morningglory",[1]; [18],0
same,"Plant response rating, Morningglory",[1]; [19],0
same,Morningglory plant response rating (0 to 10 scale),"[1]; Preemergence, Rate 125 g/ha",0
same,Morningglory plant response rating,"[1]; Preemergence, Rate 250 g/ha",0
same,Morningglory plant response rating,"[1]; Preemergence, Rate 500 g/ha",0
same,Morningglory plant response rating,"[1]; Rate 62 g/ha, Postemergence",0
same,"Plant response rating, Morningglory",[1]; [20],4
same,"Plant response rating, Redroot pigweed",[2]; [17],0
same,"Plant response rating, Redroot pigweed",[2]; [18],0
same,"Plant response rating, Redroot pigweed",[2]; [19],0
same,Redroot pigweed plant response rating (0 to 10 scale),"[2]; Preemergence, Rate 125 g/ha",0
same,Redroot pigweed plant response rating,"[2]; Preemergence, Rate 250 g/ha",0
same,Redroot pigweed plant response rating,"[2]; Preemergence, Rate 500 g/ha",0
same,Redroot pigweed plant response rating,"[2]; Rate 62 g/ha, Postemergence",0
same,"Plant response rating, Redroot pigweed",[2]; [20],0
same,"Plant response rating, Velvetleaf",[3]; [17],0
same,"Plant response rating, Velvetleaf",[3]; [18],0
same,"Plant response rating, Velvetleaf",[3]; [19],0
same,Velvetleaf plant response rating (0 to 10 scale),"[3]; Preemergence, Rate 125 g/ha",0
same,Velvetleaf plant response rating,"[3]; Preemergence, Rate 250 g/ha",0
same,Velvetleaf plant response rating,"[3]; Preemergence, Rate 500 g/ha",0
same,Velvetleaf plant response rating,"[3]; Rate 62 g/ha, Postemergence",0
same,"Plant response rating, Velvetleaf",[3]; [20],0
same,"Plant response rating, Barnyardgrass",[4]; [21],0
same,Barnyardgrass plant response rating,[4]; [22],0
same,"Plant response rating, Barnyardgrass",[4]; [23],0
same,"Plant response rating, Barnyardgrass",[4]; [24],0
same,"Plant response rating, Cocklebur",[5]; [17],0
same,"Plant response rating, Cocklebur",[5]; [18],0
same,"Plant response rating, Cocklebur",[5]; [19],0
same,Cocklebur plant response rating (0 to 10 scale),"[5]; Preemergence, Rate 125 g/ha",0
same,Cocklebur plant response rating,"[5]; Preemergence, Rate 250 g/ha",0
same,Cocklebur plant response rating,"[5]; Preemergence, Rate 500 g/ha",0
same,Cocklebur plant response rating,"[5]; Rate 62 g/ha, Postemergence",0
same,"Plant response rating, Cocklebur",[5]; [20],2
same,"Plant response rating, Nutsedge",[6]; [17],0
same,"Plant response rating, Nutsedge",[6]; [18],0
same,"Plant response rating, Nutsedge",[6]; [19],0
same,Nutsedge plant response rating (0 to 10 scale),"[6]; Preemergence, Rate 125 g/ha",0
same,Nutsedge plant response rating,"[6]; Preemergence, Rate 250 g/ha",0
same,Nutsedge plant response rating,"[6]; Rate 62 g/ha, Postemergence",0
same,"Plant response rating, Nutsedge",[6]; [20],0
same,"Plant response rating, Soybean",[7]; [17],2
same,"Plant response rating, Soybean",[7]; [18],3
same,"Plant response rating, Soybean",[7]; [19],0
same,Soybean plant response rating (0 to 10 scale),"[7]; Preemergence, Rate 125 g/ha",0
same,Soybean plant response rating,"[7]; Preemergence, Rate 250 g/ha",0
same,Soybean plant response rating,"[7]; Preemergence, Rate 500 g/ha",0
same,Soybean plant response rating,"[7]; Rate 62 g/ha, Postemergence",0
same,"Plant response rating, Soybean",[7]; [20],3
same,"Plant response rating, Rape",[8]; [17],0
same,"Plant response rating, Rape",[8]; [18],0
same,"Plant response rating, Rape",[8]; [19],0
same,Rape plant response rating (0 to 10 scale),"[8]; Preemergence, Rate 125 g/ha",0
same,Rape plant response rating,"[8]; Preemergence, Rate 250 g/ha",0
same,Rape plant response rating,"[8]; Preemergence, Rate 500 g/ha",2
same,Rape plant response rating,"[8]; Rate 62 g/ha, Postemergence",0
same,"Plant response rating, Rape",[8]; [20],0
same,"Plant response rating, S. Flatsedge",[9]; [21],0
same,S. Flatsedge plant response rating,[9]; [22],0
same,"Plant response rating, S. Flatsedge",[9]; [23],3
same,"Plant response rating, S. Flatsedge",[9]; [24],0
same,"Plant response rating, Giant foxtail",[10]; [17],3
same,"Plant response rating, Giant foxtail",[10]; [18],6
same,"Plant response rating, Giant foxtail",[10]; [19],3
same,Giant foxtail plant response rating (0 to 10 scale),"[10]; Preemergence, Rate 125 g/ha",6
same,Giant foxtail plant response rating,"[10]; Preemergence, Rate 250 g/ha",9
same,Giant foxtail plant response rating,"[10]; Preemergence, Rate 500 g/ha",10
same,Giant foxtail plant response rating,"[10]; Rate 62 g/ha, Postemergence",0
same,"Plant response rating, Giant foxtail",[10]; [20],8
same,"Plant response rating, Crabgrass",[11]; [17],0
same,"Plant response rating, Crabgrass",[11]; [18],0
same,"Plant response rating, Crabgrass",[11]; [19],0
same,Crabgrass plant response rating (0 to 10 scale),"[11]; Preemergence, Rate 125 g/ha",0
same,Crabgrass plant response rating,"[11]; Preemergence, Rate 250 g/ha",2
same,Crabgrass plant response rating,"[11]; Preemergence, Rate 500 g/ha",5
same,Crabgrass plant response rating,"[11]; Rate 62 g/ha, Postemergence",0
same,"Plant response rating, Crabgrass",[11]; [20],2
same,"Plant response rating, B. signalgrass",[12]; [17],0
same,"Plant response rating, B. signalgrass",[12]; [18],0
same,"Plant response rating, B. signalgrass",[12]; [19],0
same,"B. signalgrass plant response rating (0 to 10 scale, 0 is no effect, 10 is complete control)","[12]; Preemergence, Rate 125 g/ha",0
same,B. signalgrass plant response rating,"[12]; Preemergence, Rate 250 g/ha",0
same,B. signalgrass plant response rating,"[12]; Preemergence, Rate 500 g/ha",3
same,B. signalgrass plant response rating,"[12]; Rate 62 g/ha, Postemergence",0
same,"Plant response rating, B. signalgrass",[12]; [20],1
same,"Plant response rating, Corn",[13]; [17],0
same,"Plant response rating, Corn",[13]; [18],2
same,"Plant response rating, Corn",[13]; [19],0
same,Corn plant response rating (0 to 10 scale),"[13]; Preemergence, Rate 125 g/ha",0
same,Corn plant response rating,"[13]; Preemergence, Rate 250 g/ha",0
same,Corn plant response rating,"[13]; Preemergence, Rate 500 g/ha",0
same,Corn plant response rating,"[13]; Rate 62 g/ha, Postemergence",0
same,"Plant response rating, Corn",[13]; [20],3
same,"Plant response rating, Sugarbeets",[14]; [17],0
same,"Plant response rating, Sugarbeets",[14]; [18],0
same,"Plant response rating, Sugarbeets",[14]; [19],0
same,Sugarbeets plant response rating (0 to 10 scale),"[14]; Preemergence, Rate 125 g/ha",0
same,Sugarbeets plant response rating,"[14]; Preemergence, Rate 250 g/ha",0
same,Sugarbeets plant response rating,"[14]; Preemergence, Rate 500 g/ha",0
same,Sugarbeets plant response rating,"[14]; Rate 62 g/ha, Postemergence",0
same,"Plant response rating, Sugarbeets",[14]; [20],1
same,"Plant response rating, Wild oats",[15]; [17],0
same,"Plant response rating, Wild oats",[15]; [18],0
same,"Plant response rating, Wild oats",[15]; [19],0
same,Wild oats plant response rating (0 to 10 scale),"[15]; Preemergence, Rate 125 g/ha",0
same,Wild oats plant response rating,"[15]; Preemergence, Rate 250 g/ha",0
same,Wild oats plant response rating,"[15]; Preemergence, Rate 500 g/ha",3
same,Wild oats plant response rating,"[15]; Rate 62 g/ha, Postemergence",0
same,"Plant response rating, Wild oats",[15]; [20],0
same,"Plant response rating, Blackgrass",[16]; [17],0
same,"Plant response rating, Blackgrass",[16]; [18],0
same,"Plant response rating, Blackgrass",[16]; [19],0
same,Blackgrass plant response rating (0 to 10 scale),"[16]; Preemergence, Rate 125 g/ha",0
same,Blackgrass plant response rating,"[16]; Preemergence, Rate 250 g/ha",1
same,Blackgrass plant response rating,"[16]; Preemergence, Rate 500 g/ha",4
same,Blackgrass plant response rating,"[16]; Rate 62 g/ha, Postemergence",0
same,"Plant response rating, Blackgrass",[16]; [20],2
